According to ChEMBL document CHEMBL2074443, “Association of tamoxifen biliary excretion rate with prior tamoxifen exposure and increased mdr1b expression” (Biochem Pharmacol, 2000):

Target: ATP-dependent translocase ABCB1 (Rattus norvegicus, UniProt P43245)
Test: TP_TRANSPORTER: RT-PCR in vivo, liver of Lewis rat
Format: functional, organism-based

ATP-dependent translocase ABCB1, sequence (P43245 whole entry): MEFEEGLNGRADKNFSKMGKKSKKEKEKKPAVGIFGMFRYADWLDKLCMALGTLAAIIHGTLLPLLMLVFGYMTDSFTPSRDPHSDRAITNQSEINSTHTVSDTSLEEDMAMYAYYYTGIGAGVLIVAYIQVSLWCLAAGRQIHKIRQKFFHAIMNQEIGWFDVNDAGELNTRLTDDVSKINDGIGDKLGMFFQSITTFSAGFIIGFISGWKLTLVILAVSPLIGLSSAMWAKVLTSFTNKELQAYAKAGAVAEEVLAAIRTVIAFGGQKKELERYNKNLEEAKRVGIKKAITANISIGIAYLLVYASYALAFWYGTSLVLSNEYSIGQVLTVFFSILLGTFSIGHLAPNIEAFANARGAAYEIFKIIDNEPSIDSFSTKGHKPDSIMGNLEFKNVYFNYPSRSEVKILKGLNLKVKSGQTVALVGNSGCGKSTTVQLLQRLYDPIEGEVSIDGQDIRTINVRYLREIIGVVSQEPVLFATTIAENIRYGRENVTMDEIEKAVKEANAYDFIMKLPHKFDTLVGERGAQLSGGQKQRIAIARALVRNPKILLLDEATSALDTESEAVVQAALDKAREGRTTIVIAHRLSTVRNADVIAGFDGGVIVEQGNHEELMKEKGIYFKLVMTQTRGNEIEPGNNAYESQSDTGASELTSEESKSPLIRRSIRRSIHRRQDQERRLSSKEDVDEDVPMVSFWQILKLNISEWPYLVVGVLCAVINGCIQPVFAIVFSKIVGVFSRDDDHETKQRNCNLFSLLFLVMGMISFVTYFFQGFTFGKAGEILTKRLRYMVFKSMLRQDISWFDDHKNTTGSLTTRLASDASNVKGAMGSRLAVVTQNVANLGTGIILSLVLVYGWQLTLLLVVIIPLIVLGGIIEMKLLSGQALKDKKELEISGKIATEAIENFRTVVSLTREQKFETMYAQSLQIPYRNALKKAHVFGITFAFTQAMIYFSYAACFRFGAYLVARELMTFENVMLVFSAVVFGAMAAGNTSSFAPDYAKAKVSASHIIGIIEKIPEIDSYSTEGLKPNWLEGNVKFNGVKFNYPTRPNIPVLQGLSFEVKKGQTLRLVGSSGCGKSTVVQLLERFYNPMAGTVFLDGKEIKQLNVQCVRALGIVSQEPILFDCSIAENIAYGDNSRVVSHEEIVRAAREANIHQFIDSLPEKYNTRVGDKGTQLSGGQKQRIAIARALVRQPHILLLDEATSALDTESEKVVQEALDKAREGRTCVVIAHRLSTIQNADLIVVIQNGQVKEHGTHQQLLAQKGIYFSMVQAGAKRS

Activity: inducer [+]
Structure (SMILES): CC/C(=C(\c1ccccc1)c1ccc(OCCN(C)C)cc1)c1ccccc1 [TAMOXIFEN]
